The text below walks through data of patent US7781428B2 (Pfizer Inc., priority 2006, dated 2010).

In the assay the target is T1, mineralocorticoid receptor (MR) (Homo sapiens, UniProt P08235).
T1 construct: expressed in transfected cells; host or cells: Huh7 (human liver cells)
T1 sequence (P08235 726-964 limits assumed): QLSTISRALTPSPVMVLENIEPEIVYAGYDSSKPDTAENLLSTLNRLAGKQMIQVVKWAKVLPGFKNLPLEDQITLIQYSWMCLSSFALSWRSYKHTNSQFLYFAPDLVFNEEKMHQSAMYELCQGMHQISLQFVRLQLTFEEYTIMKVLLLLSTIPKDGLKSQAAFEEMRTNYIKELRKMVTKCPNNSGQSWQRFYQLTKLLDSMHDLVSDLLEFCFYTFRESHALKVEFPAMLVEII
The assay is described as follows: Cell-based Gal4 response element-controlled luciferase reporter assay (MR antagonism). As to conditions: Huh7 human liver cells transfected with Gal4 DBD-MR LBD fusion and luciferase reporter; block of agonist-induced activation; overnight incubation. An excerpt: Method 1: Cell-based Gal4 Response Element-controlled Luciferase Reporter Assay
An in vitro assay can be used to evaluate mineralocorticoid receptor (MR) antagonism by a test compound. […] An agonist of the receptor can bind to and activate the receptor LBD, which activate the expression of the Gal4 response element containing luciferase reporter gene. Antagonists can compete for binding to the receptor LBDs and decrease the transcription activity of the reporter gene. Measurement of luciferase activity allows quantitative determinations of the reporter transcription in the presence of either agonists or agonists and antagonists in combination. β-galactosidase activity, which is unaffected by ligand, is used to normalize the transfection efficiency in the cell population.
Huh7 cells were plated in RPMI1640+10% fetal bovine serum (Invitrogen Corporation, San Diego, Calif.), at 10,000 cells per well in 96-well tissue culture dishes for approximately 24 hours. Cells were then transfected using FuGENE™ 6 Transfection Reagent according to manufacturers' instructions (Roche Molecular Biochemicals, Indianapolis, Ind.). Approximately 20 hours after transfection, media were removed. Cells were washed once with PBS and treated (n=6/group) with agonist for each receptor (all chemicals from Sigma, St. Louis, Mo.), and with compounds. Agonist concentrations represent 70-80% of full activation of each receptor.
Compounds were dissolved in DMSO at 10 mM and diluted to final concentrations in phenol red-free media that contained 10% charcoal- and dextran-stripped serum (Life Technologies, Gathersburg, Md.). Following overnight incubation (18-20 hours) with compounds, the medium was removed and replaced with 100 μL per well of PBS and 100 μL of Steady-Glo™ lysis buffer with luciferase substrate (Promega Corporation, Madison, Wis.). After a 30-minute incubation to completely lyse the cells, 100 μL of the lysate was transferred to a black, Dynatech Microfluor assay plates (Dynex Corporation, Chantilly, Va.) to measure luciferase activity. The plate was sealed with TopSeal self-adhesive film, dark-adapted for 5 minutes, then counted in a TopCount Plate Reader (Packard Instrument Company, Meriden, Conn.) in single photon counting mode. The remaining lysate was used for determination of β-galactosidase activity. In a clear 96-well assay plate, 100 μL of cell lysate was added to 100 μL β-galactosidase assay buffer per well. The assay buffer consisted of 60 mM Na2HPO4, 40 mM NaH2PO4, 10 mM KCl, 1 mM MgSO4, 50 mM β-mercaptoethanol, and 2.5 mg/mL ONPG, the latter two reagents were added just prior to assay (all chemicals from Sigma). The reaction was allowed to proceed until a distinct yellow color developed. Reactions were stopped by the addition of 100 μL per well 1 M Na2CO3 and plates were read at 420 nm in Victor-2 (Perkin Elmer Life Sciences, Boston, Mass.). Values (relative luciferase activity) for each sample were expressed as a ratio of luciferase activity to OD420β-galactosidase activity measured in arbitrary units for each well. […] “b” is the slope, “c” is the IC50 or EC50. “x” is the concentration of the compound and “y” the activity at that concentration.
For orientation: A reporter such as luciferase makes a cellular process visible.

Counter-ions that a name gives are not always drawn.

The IC50 is the concentration at which inhibition is half-maximal. Take `Cc1cc(N2N=C3c4ccc(C(=O)O)cc4OCC3C2C2CC2)ccc1C#N` (racemic) [Example 75, 2-(4-cyano-3-methylphenyl)-3-cyclopropyl-2,3,3a,4-tetrahydrochromeno[4,3-c]pyrazole-7-carboxylic acid]: the IC50 worked out at 711 nM.

As to `Cc1cc(N2N=C3c4ccc(C(=O)O)cc4CCC3C2C2=CCCC2)ccc1C#N` (racemic) [Example 51, 2-(4-cyano-3-methylphenyl)-3-cyclopentenyl-3,3a,4,5-tetrahydro-2H-benzo[g]indazole-7-carboxylic acid], the IC50 came out at 7 nM.

For the compound `COc1cc(N2N=C3c4ccc(C(=O)O)cc4CC[C@H]3[C@H]2C2CCCC2)ccc1C#N` [Example 27, (3R,3aS)-2-(4-cyano-3-methoxyphenyl)-3-cyclopentyl-3,3a,4,5-tetrahydro-2H-benzo[g]indazole-7-carboxylic acid], the IC50 worked out at 305 nM.

As to `N#Cc1ccc(N2N=C3c4ccc(C(=O)O)cc4CCC3C2C2CCNCC2)cc1Cl` (racemic) [Example 38, 2-(3-chloro-4-cyanophenyl)-3-(piperidin-4-yl)-3,3a,4,5-tetrahydro-2H-benzo[g]indazole-7-carboxylic acid trifluoroacetate], the IC50 was > 1000 nM.

On to `N#Cc1ccc(N2N=C3c4ccc(C(=O)O)cc4CC[C@H]3[C@H]2c2ccoc2)cc1Cl` [Example 48, (3S,3aS)-2-(3-chloro-4-cyanophenyl)-3-(3-furyl)-3,3a,4,5-tetrahydro-2H-benzo[g]indazole-7-carboxylic acid], for which the IC50 is > 1000 nM.

For `N#Cc1ccc(N2N=C3c4ccc(O)cc4CCC3C2c2ccc(F)cc2)cc1` (racemic) [Example 90, (±)-4-((3RS,3aSR)-3-(4-fluorophenyl)-7-hydroxy-3,3a,4,5-tetrahydrobenzo[g]indazol-2-yl)benzonitrile], the IC50 is 1100 nM.

As to `N#Cc1ccc(N2N=C3c4ccc(C(=O)NCCCCCC(=O)O)cc4CC[C@@H]3[C@@H]2c2ccc(F)cc2)cc1Cl` (racemic) [Example 103, (±)-6-((3RS,3aRS)-2-(3-chloro-4-cyanophenyl)-3-(4-fluorophenyl)-3,3a,4,5-tetrahydro-2H-benzo[g]indazole-7-carboxamido)hexanoic acid], the IC50 was 113 nM.

On to `CS(=O)(=O)CCNC(=O)c1ccc2c(c1)CC[C@H]1C2=NN(c2ccc(C#N)c(Cl)c2)[C@H]1C1CCOCC1` (racemic) [Example 100], for which the IC50 was determined as 21 nM.

Regarding `N#Cc1ccc(N2N=C3c4ccc(O)cc4CC[C@@H]3[C@@H]2c2ccc(F)cc2)cc1Cl` [Example 87, 2-chloro-4-((3R,3aR)-3-(4-fluorophenyl)-7-hydroxy-3,3a,4,5-tetrahydrobenzo[g]indazol-2-yl)benzonitrile], the IC50 was 36 nM.

For the compound `N#Cc1ccc(N2N=C3c4ccc(O)cc4CCC3C2c2ccc(F)cc2)cc1` (racemic) [Example 89, (±)-4-((3RS,3aRS)-3-(4-fluorophenyl)-7-hydroxy-3,3a,4,5-tetrahydrobenzo[g]indazol-2-yl)benzonitrile], the IC50 worked out at 705 nM.

As to `Cc1nc(N2N=C3c4ccc(C(=O)O)cc4CCC3C2C2CCCC2)ccc1C#N` (racemic) [Example 24, 2-(5-cyano-6-methylpyridin-2-yl)-3-cyclopentyl-3,3a,4,5-tetrahydro-2H-benzo[g]indazole-7-carboxylic acid], the half-inhibitory concentration (IC50) was 8 nM.

On to `CC(=O)Nc1ccc2c(c1)CCC1C2=NN(c2ccc(C#N)c(Cl)c2)C1C1CCCC1` (stereo not shown) [Example 91, N-(-2-(3-chloro-4-cyanophenyl)-3-cyclopentyl-3,3a,4,5-tetrahydro-2H-benzo[g]indazol-7-yl)acetamide], for which the IC50 was 5 nM.

On to `N#Cc1ccc(N2N=C3c4ccc(C(=O)NCCS(N)(=O)=O)cc4CC[C@@H]3[C@@H]2C2CCOCC2)cc1Cl` (racemic) [Example 105, (±)-(3SR,3aRS)—N-[2-(aminosulfonyl)ethyl]-2-(3-chloro-4-cyanophenyl)-3-(tetrahydro-2H-pyran-4-yl)-3,3a,4,5-tetrahydro-2H-benzo[g]indazole-7-carboxamide], for which the IC50 worked out at 141 nM.

In the case of `N#Cc1ccc(N2N=C3c4ccc(C(=O)O)cc4CC[C@H]3[C@H]2c2ccc(F)cc2)cc1Cl` [Example 4, (3S,3aS)-2-(3-chloro-4-cyanophenyl)-3-(4-fluorophenyl)-3,3a,4,5-tetrahydro-2H-benzo[g]indazole-7-carboxylic acid], the IC50 is 3500 nM.

`N#Cc1ccc(N2N=C3c4ccc(O)cc4CC[C@H]3[C@H]2c2ccc(F)cc2)cc1Cl` [Example 88, 2-chloro-4-((3S,3aS)-3-(4-fluorophenyl)-7-hydroxy-3,3a,4,5-tetrahydrobenzo[g]indazol-2-yl)benzonitrile]: the IC50 is > 1000 nM.

Regarding `N#Cc1ccc(N2N=C3c4ccc(C(=O)O)cc4CCC3C2c2ccco2)cc1Cl` (racemic) [Example 43, 2-(3-chloro-4-cyanophenyl)-3-(2-furyl)-3,3a,4,5-tetrahydro-2H-benzo[g] indazole-7-carboxylic acid], the IC50 was 21 nM.

For the compound `N#Cc1ccc(N2N=C3c4ccc(C(=O)O)cc4OC[C@@H]3[C@@H]2c2ccc(F)cc2)cc1Cl` [Example 56, (3R,3aR)-2-(3-chloro-4-cyanophenyl)-3-(4-fluorophenyl)-2,3,3a,4-tetrahydrochromeno[4,3-c]pyrazole-7-carboxylic acid], the IC50 amounted to 302 nM.

Regarding `N#Cc1ccc(N2N=C3c4ccc(C(=O)O)cc4CC[C@@H]3[C@@H]2C2CCCC2)cc1O` (racemic) [Example 33], the IC50 is > 500 nM.

Turning to `CS(=O)(=O)CCNC(=O)c1ccc2c(c1)CCC1C2=NN(c2ccc(C#N)c(Cl)c2)C1c1ccc(F)cc1` (racemic) [Example 97, (±)-(3RS,3aRS)-2-(3-chloro-4-cyanophenyl)-3-(4-fluorophenyl)-N-(2-(methylsulfonyl)ethyl)-3,3a,4,5-tetrahydro-2H-benzo[g]indazole-7-carboxamide], the IC50 turned out to be 12 nM.

Consider `N#Cc1ccc(N2N=C3c4ccc(C(=O)O)cc4OC[C@@H]3[C@@H]2c2ccc(F)cc2)cc1` [Example 59, (3R,3aR)-2-(4-cyanophenyl)-3-(4-fluorophenyl)-2,3,3a,4-tetrahydrochromeno[4,3-c]pyrazole-7-carboxylic acid], for which the IC50 was > 1000 nM.

Turning to `N#Cc1ccc(N2N=C3c4ccc(C(=O)NCC(=O)NCC(=O)O)cc4CC[C@@H]3[C@@H]2c2ccc(F)cc2)cc1Cl` (racemic) [Example 110, (±)-2-(2-((3RS,3aRS)-2-(3-chloro-4-cyanophenyl)-3-(4-fluorophenyl)-3,3a,4,5-tetrahydro-2H-benzo[g]indazole-7-carboxamido)acetamido)acetic acid], the IC50 was > 1000 nM.

With `N#Cc1ccc(N2N=C3c4ccc(C(=O)O)cc4OC[C@H]3[C@H]2C2CCCC2)cc1` [Example 72, (3R,3aS)-2-(4-cyanophenyl)-3-cyclopentyl-2,3,3a,4-tetrahydrochromeno[4,3-c]pyrazole-7-carboxylic acid], the IC50 was found to be 8100 nM.

For `C[S+]([O-])CCNC(=O)c1ccc2c(c1)CC[C@@H]1C2=NN(c2ccc(C#N)c(Cl)c2)[C@H]1c1ccc(F)cc1` (mixture of isomers) [Example 98, (±)-(3RS,3aSR)-2-(3-chloro-4-cyanophenyl)-3-(4-fluorophenyl)-N-(2-(methylsulfinyl)ethyl)-3,3a,4,5-tetrahydro-2H-benzo[g]indazole-7-carboxamide], the IC50 was found to be 13 nM.

For the compound `N#Cc1ccc(N2N=C3c4ccc(O)cc4CCC3C2c2ccc(F)cc2)cc1C(F)(F)F` (racemic) [Example 83], the half-inhibitory concentration (IC50) was determined as 77 nM.

With `N#Cc1ccc(N2N=C3c4ccc(C(=O)O)cc4CCC3C2c2ccc(F)cc2)cc1Cl` (racemic) [Example 2, 2-(3-chloro-4-cyanophenyl)-3-(4-fluorophenyl)-3,3a,4,5-tetrahydro-2H-benzo[g]indazole-7-carboxylic acid], the IC50 was determined as 223 nM.
